# Test results taken from publication PMC11311998, “AR71, Histamine H3 Receptor Ligand—In Vitro and In Vivo Evaluation (Anti-Inflammatory Activity, Metabolic Stability, Toxicity, and Analgesic Action)” (International Journal of Molecular Sciences, 2024).
# Legend:
# human astrocytes = assay: viability of human astrocytes (MTT assay); assay type: cell-based; conditions: for IC50: Homo sapiens, Astrocyte
# Protocol: We investigated the effect of AR71 in a wide range of concentrations (0.78–100 μM) on the viability of human astrocyte cell lines after 2, 24, 48, and 72 h of incubation (Figure 6). Prolonged incubation of human astrocytes with AR71 caused a dose-dependent decrease in cell viability.
# The astrocyte cell line from the human cerebral cortex was purchased from ScienCell Research Laboratories (San Diego, CA, USA; Cat no. 1800) and maintained according to the protocol recommended by the company (the ScienCell Research Laboratories’ protocol).
# The colorimetric MTT assay using 3-(4,5-dimethylthiazol-2-yl)-2,5-diphenyltetrazolium bromide (MTT; Sigma-Aldrich Chemical Co. Ltd., Saint Louis, MO, USA) was used for evaluation of astrocytes viability. The experiment was carried out following the procedure described in detail previously. Astrocytes were seeded onto 96-well plates at a final density of 10 × 10^3 cells/well. Following 24 h of culture, the cells were treated with AR71 (0.78–100 μM) for […], 24, 48, or 72 h. After the respective incubation periods, MTT solution was added to the cell culture for another four hours. Absorbance was measured at 570 nm using a BioTek EL 800× microplate reader (BioTek, Winooski, VT, USA), with the value directly proportional to the number of viable cells. Cell viability was calculated by the following formula: Viability [%] = (A/AC) × 100%, where A represents the absorbance of the investigated sample and AC represents the absorbance of the negative control (untreated cells). The positive control (vehicle) was 0.1% DMSO.
# hH3R = biological target: T1, hH3R (Homo sapiens, UniProt Q9Y5N1); assay: cAMP accumulation assay in HEK 293 cells stably expressing the hH3R; assay type: cell-based
# T1 construct: expressed in transfected cells; host or cells: HEK 293 cells stably expressing hH3R, provided by Dr Thierry Calmels, Bioprojet-Biotech (France)
# T1 sequence (Q9Y5N1 whole entry): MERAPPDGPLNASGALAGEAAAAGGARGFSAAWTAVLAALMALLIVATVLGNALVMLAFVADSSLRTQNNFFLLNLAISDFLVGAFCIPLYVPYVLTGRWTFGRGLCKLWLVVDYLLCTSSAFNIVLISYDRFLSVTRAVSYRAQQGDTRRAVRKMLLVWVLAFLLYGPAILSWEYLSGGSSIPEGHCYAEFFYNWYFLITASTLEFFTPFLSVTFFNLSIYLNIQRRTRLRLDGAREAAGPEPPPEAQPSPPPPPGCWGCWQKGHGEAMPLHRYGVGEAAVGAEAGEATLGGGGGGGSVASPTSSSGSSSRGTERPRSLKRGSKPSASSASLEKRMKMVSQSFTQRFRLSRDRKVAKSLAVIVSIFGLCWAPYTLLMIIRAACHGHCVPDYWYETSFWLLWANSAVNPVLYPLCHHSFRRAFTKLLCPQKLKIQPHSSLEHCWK
# Protocol: The intrinsic activity of AR71 was evaluated in a 3′,5′-cyclic adenosine monophosphate (cAMP) accumulation assay in human embryonic kidney (HEK) 293 cells, stably expressing the hH3R [42].
# The intrinsic activity of AR71 was evaluated in a 3′,5′-cyclic adenosine monophosphate (cAMP) accumulation assay in human embryonic kidney (HEK) 293 cells, stably expressing the hH3R [42], using the LANCE Ultra cAMP kit (Perkin Elmer, Waltham, MA, USA). The applied method was intended to measure the levels of cAMP generated because of changes in adenylyl cyclase activity mediated by GPCRs. The assay is based on the competition between the europium (Eu) chelate-labelled cAMP tracer and sample cAMP for binding sites on cAMP-specific monoclonal antibodies labelled with the ULight dye. The effect of AR71 (concentrations: 10^−10–10^−5 M) on reversing the inhibition of cAMP production by (R)-(-)-α-methyl histamine (30 nM) in forskolin-stimulated (10 μM) cells was evaluated. The experiment was conducted according to the principles described earlier. Experiments were performed three times in triplicates, and IC50 values were determined using GraphPad Prism 8.4.3 software.
# Figure S1. Forskolin-stimulated cAMP accumulation studies in HEK 293 cells expressing the human histamine H3
# receptor, co-treated with (R)(-)-α-Methylhistamine […] and AR71 (30 nM). […]
# CCI-exposed mice = assay: tail flick test in CCI neuropathic pain model; assay type: in vivo, mouse; conditions: 20 mg/kg i.p.
# Protocol: The effects of a single intraperitoneal (i.p.) injection of AR71 at doses of 5, 10, and 20 mg/kg on mechanical (von Frey test) and thermal (cold plate and tail flick tests) stimulus were evaluated on day 14 following sciatic nerve injury (Figure 15). There were seven to eight animals per group. All these tests were performed in three time series after the administration of the compound. In the case of the von Frey test—after 30, 90, and 180 min; the cold plate test—after 35, 95, and 185 min; and the tail flick test—after 40, 100, and 190 min.
# The mice were randomly divided into four experimental groups. One group received a vehicle treatment (10% DMSO/10%(2-Hydroxypropyl)-β-cyclodextrin/water for injection, i.p.), while the other three groups were administered with AR71 at doses of 5, 10, or 20 mg/kg of body weight (b.w.), i.p. Baseline measurements for all tests were conducted before the compounds were injected, and the results are presented as percentages of the maximal possible effect (% MPE). […] All data from behavioural tests were analysed using a one-way ANOVA with Bonferroni’s multiple comparison post hoc test. […]
# Tail flick latency was measured on the dorsal part of the tail at two-thirds of its length by applying a focused beam of light (thermal stimulus). The time interval between the thermal stimulus’s onset and the tail’s withdrawal from the beam was recorded. […]
compound,measurement,setting,value
"COc1cc(/C=C/C(=O)c2ccc(OCCCN3CCCCC3)cc2)cc(OC)c1OC [AR71, (E)-3-(3,4,5-trimethoxyphenyl)-1-(4-(3-(piperidin-1-yl)propoxy)phenyl)prop-2-en-1-one]",effect on astrocyte viability at low concentrations,"human astrocytes; 1.56 and 3.12 μM, 48 h, did not persist after 72 h",statistically significant proliferation
same,IC50,human astrocytes; 2 h incubation,41.3 µM
same,IC50,human astrocytes; 24 h incubation,20.2 µM
same,IC50,human astrocytes; 48 h incubation,12.5 µM
same,IC50,human astrocytes; 72 h incubation,9.69 µM
same,intrinsic activity profile at H3R,hH3R; counteracts inhibition of cAMP production by (R)-(-)-α-methyl histamine in forskolin-stimulated cells,H3R antagonist/inverse agonist
same,IC50,hH3R; reversal of inhibition of cAMP production by (R)-(-)-α-methyl histamine (30 nM) in forskolin-stimulated (10 μM) cells,0.0835 ± 0.0119 µM
same,effect in tail flick test vs vehicle,CCI-exposed mice; 100 and 190 min (p < 0.001 and p < 0.01),significant pain-relieving effects
same,effect in tail flick test vs vehicle,"CCI-exposed mice; 40 min post-injection, p < 0.05",significant analgesic effect
